Legend:
A-549 = test: SRB anti-proliferative assay; format: cell-based; conditions: Homo sapiens, A549; A-549, SRB, mean ± SE of 3
Method: Staurosporine, a clinically used antitumor drug, was co-assayed as a reference agent for the experiment.
(§1) Examination of the cytotoxic activity for the target conjugates was carried out in accordance with the SRB colorimetric assay protocol, as described previously.
(§2) In vitro anti-proliferative activity assay
(§3) Cells at a concentration of 0.50 x
(§4) Sulfo-Rhodamine-B stain (SRB) assay.
(§5) cell to the wall of the plate.
(§6) wells were prepared for each individual dose).
(§7) Unbound dye was removed by four

UO-31 = conditions: UO-31, 10 μM
RXF 393 = conditions: RXF 393, 10 μM
OVCAR-4 = conditions: OVCAR-4, 10 μM
EKVX = conditions: 10 μM
TK-10 = conditions: TK-10, 10 μM
HL-60(TB) = conditions: HL-60(TB), 10 μM
OVCAR-3 = conditions: OVCAR-3, 10 μM
SNB-19 = conditions: SNB-19, 10 μM
MALME-3M = conditions: 10 μM
MOLT-4 = conditions: MOLT-4, 10 μM
HT29 = conditions: HT29, 10 μM
SK-MEL-2 = conditions: SK-MEL-2, 10 μM
NCI-H460 = test: NCI SRB screening; format: cell-based, human; conditions: NCI-H460, 10 μM
CCRF-CEM = conditions: 10 μM
SK-MEL-5 = conditions: SK-MEL-5, 10 μM
PC-3 = test: NCI SRB screening; format: cell-based, human; conditions: PC-3, 10 μM
NCI-H522 = conditions: NCI-H522, 10 μM
SN12C = conditions: 10 μM
SK-MEL-28 = conditions: SK-MEL-28, 10 μM
ACHN = conditions: 10 μM
HOP-92 = conditions: HOP-92, 10 μM
RPMI-8226 = conditions: RPMI-8226, 10 μM
KM12 = conditions: KM12, 10 μM
SK-OV-3 = conditions: SK-OV-3, 10 μM
DU-145 = conditions: DU-145, 10 μM
SR = conditions: 10 μM
HCC-2998 = test: NCI SRB screening; format: cell-based, human; conditions: HCC-2998, 10 μM
UACC-257 = conditions: UACC-257, 10 μM
SF-268 = conditions: SF-268, 10 μM
HCT-116 [1] = conditions: HCT-116, 10 μM
HOP-62 = conditions: HOP-62, 10 μM
LOX IMVI = test: NCI SRB screening; format: cell-based, human; conditions: 10 μM
MDA-MB-231 = test: SRB anti-proliferative assay; format: cell-based; conditions: Homo sapiens; MDA-MB-231, SRB, mean ± SE of 3
Method: (§8) All the newly prepared target conjugates (7, 8a–c, 9 and 10a–e) were investigated for the prospective growth inhibitory actions against three different cancer cell lines viz.; A-549, MDA-MB-231, and HCT-116, using the sulforhodamine B colorimetric (SRB) assay. Staurosporine, a clinically used antitumor drug, was co-assayed as a reference agent for the experiment.
as §1, §2, §3, §4, §5, §6, §7

HCT-116 [2] = test: SRB anti-proliferative assay; format: cell-based; conditions: Homo sapiens; HCT-116, SRB, mean ± SE of 3
Method: as §8, §1, §2, §3, §4, §5, §6, §7

HCT-15 = conditions: HCT-15, 10 μM
HS 578T = conditions: 10 μM
786-0 = conditions: 786-0, 10 μM
OVCAR-5 = conditions: OVCAR-5, 10 μM
BT-549 = conditions: BT-549, 10 μM
MDA-MB-231/ATCC = conditions: MDA-MB-231, 10 μM
NCI/ADR-RES = conditions: 10 μM
COLO 205 = test: NCI SRB screening; format: cell-based, human; conditions: COLO 205, 10 μM

For `CCCn1cc(/C=N/N=C2\C(=O)Nc3ccc(OC(F)(F)F)cc32)c2ccccc21` [Compound 8b], the IC50 (A-549) was 9.2 ± 0.78 µM, the GI % (UO-31) was 19% and the GI % (RXF 393) was “– (Only GI % higher than 10% are shown)”. For the same compound, the GI % (OVCAR-4) was “– (Only GI % higher than 10% are shown)”, the GI % (EKVX) was 40% and the GI % (TK-10) was “– (Only GI % higher than 10% are shown)”. The GI % (HL-60(TB)) was 12%, the GI % (OVCAR-3) was “– (Only GI % higher than 10% are shown)” and the GI % (SNB-19) was “– (Only GI % higher than 10% are shown)”. The GI % (MALME-3M) was “– (Only GI % higher than 10% are shown)”, the GI % (MOLT-4) was 50% and the GI % (HT29) was 25%. For the same compound, the GI % (SK-MEL-2) was “– (Only GI % higher than 10% are shown)”, the GI % (NCI-H460) was 11% and the GI % (CCRF-CEM) was 52%. For the same compound, the GI % (SK-MEL-5) was “– (Only GI % higher than 10% are shown)”, the GI % (PC-3) was 32% and the GI % (NCI-H522) was 19%. For the same compound, the GI % (SN12C) was “– (Only GI % higher than 10% are shown)”, the GI % (SK-MEL-28) was “– (Only GI % higher than 10% are shown)” and the GI % (ACHN) was 15%. For the same compound, the GI % (HOP-92) was “– (Only GI % higher than 10% are shown)”, the GI % (RPMI-8226) was 30% and the GI % (KM12) was “– (Only GI % higher than 10% are shown)”. The GI % (SK-OV-3) was “– (Only GI % higher than 10% are shown)”, the GI % (DU-145) was 13% and the GI % (SR) was “– (Only GI % higher than 10% are shown)”. For the same compound, the GI % (HCC-2998) was “– (Only GI % higher than 10% are shown)”, the GI % (UACC-257) was “– (Only GI % higher than 10% are shown)” and the GI % (SF-268) was “– (Only GI % higher than 10% are shown)”. For the same compound, the GI % (HCT-116 [1]) was 21%, the GI % (HOP-62) was 21% and the GI % (LOX IMVI) was “– (Only GI % higher than 10% are shown)”. It also gave an IC50 (MDA-MB-231) of 8.9 ± 0.61 µM, an IC50 (HCT-116 [2]) of 19.1 ± 1.34 µM and a GI % (HCT-15) of 23%. For the same compound, the GI % (HS 578T) was “– (Only GI % higher than 10% are shown)”, the GI % (786-0) was “– (Only GI % higher than 10% are shown)” and the GI % (OVCAR-5) was “– (Only GI % higher than 10% are shown)”. The GI % (BT-549) was “– (Only GI % higher than 10% are shown)”, the GI % (MDA-MB-231/ATCC) was “– (Only GI % higher than 10% are shown)” and the GI % (NCI/ADR-RES) was 15%. For the same compound, the GI % (COLO 205) was “– (Only GI % higher than 10% are shown)”.

With `CCCn1cc(C=NN=C2C(=O)Nc3ccc([N+](=O)[O-])cc32)c2ccccc21` [Compound 8c] the IC50 (A-549) was 12.3 ± 1.05 µM, the GI % (UO-31) was “– (Only GI % higher than 10% are shown)” and the GI % (RXF 393) was “– (Only GI % higher than 10% are shown)”. For the same compound, the GI % (OVCAR-4) was “– (Only GI % higher than 10% are shown)”, the GI % (EKVX) was “– (Only GI % higher than 10% are shown)” and the GI % (TK-10) was “– (Only GI % higher than 10% are shown)”. For the same compound, the GI % (HL-60(TB)) was 10%, the GI % (OVCAR-3) was “– (Only GI % higher than 10% are shown)” and the GI % (SNB-19) was 22%. For the same compound, the GI % (MALME-3M) was “– (Only GI % higher than 10% are shown)”, the GI % (MOLT-4) was “– (Only GI % higher than 10% are shown)” and the GI % (HT29) was “– (Only GI % higher than 10% are shown)”. The GI % (SK-MEL-2) was “– (Only GI % higher than 10% are shown)”, the GI % (NCI-H460) was 19% and the GI % (CCRF-CEM) was “– (Only GI % higher than 10% are shown)”. For the same compound, the GI % (SK-MEL-5) was “– (Only GI % higher than 10% are shown)”, the GI % (PC-3) was “– (Only GI % higher than 10% are shown)” and the GI % (NCI-H522) was “– (Only GI % higher than 10% are shown)”. For the same compound, the GI % (SN12C) was “– (Only GI % higher than 10% are shown)”, the GI % (SK-MEL-28) was “– (Only GI % higher than 10% are shown)” and the GI % (ACHN) was “– (Only GI % higher than 10% are shown)”. The GI % (HOP-92) was 11%, the GI % (RPMI-8226) was “– (Only GI % higher than 10% are shown)” and the GI % (KM12) was 11%. For the same compound, the GI % (SK-OV-3) was “– (Only GI % higher than 10% are shown)”, the GI % (DU-145) was “– (Only GI % higher than 10% are shown)” and the GI % (SR) was 19%. The GI % (HCC-2998) was “– (Only GI % higher than 10% are shown)”, the GI % (UACC-257) was “– (Only GI % higher than 10% are shown)” and the GI % (SF-268) was “– (Only GI % higher than 10% are shown)”. For the same compound, the GI % (HCT-116 [1]) was 20%, the GI % (HOP-62) was “– (Only GI % higher than 10% are shown)” and the GI % (LOX IMVI) was “– (Only GI % higher than 10% are shown)”. For the same compound, the IC50 (MDA-MB-231) was 15.6 ± 0.98 µM, the IC50 (HCT-116 [2]) was 6.4 ± 0.5 µM and the GI % (HCT-15) was “– (Only GI % higher than 10% are shown)”. The GI % (HS 578T) was “– (Only GI % higher than 10% are shown)”, the GI % (786-0) was “– (Only GI % higher than 10% are shown)” and the GI % (OVCAR-5) was “– (Only GI % higher than 10% are shown)”. For the same compound, the GI % (BT-549) was “– (Only GI % higher than 10% are shown)”, the GI % (MDA-MB-231/ATCC) was “– (Only GI % higher than 10% are shown)” and the GI % (NCI/ADR-RES) was “– (Only GI % higher than 10% are shown)”. For the same compound, the GI % (COLO 205) was “– (Only GI % higher than 10% are shown)”.
